Reference: PubChem BioAssay AID270 (DTP/NCI, 2004)
“And” between values parts separate entries of the source, which are not always exact repeats. Identical values can stand only once. Results filed as inconclusive are left out.

Test system: BDF1 mice, s.c. Lewis lung carcinoma, T/C %
Experiment: NCI In Vivo Anticancer Drug Screen. Data for tumor model Lewis Lung Carcinoma (subcutaneous) in B6D2F1 (BDF1) mice
Procedure, shortened: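 Transplanted tumors grown in mice; compound vs vehicle dosing; endpoint survival or tumor size; ratio T/C.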

Q: Which T/C (endpoint: median survival time, dose: 6.25 mg/kg/injection, schedule: Q01DX009 (ip), vehicle: saline with Tween-80, higher = longer survival) does the source give for `CC/C(C)=C1\OC(=O)C(C)C(O)C(Cc2cccnc2)NC(=O)C(NC(=O)c2ncccc2O)C(C)OC1=O` (configuration not stated) here?
A: The T/C was 92 % of control.

Q: And the T/C (endpoint: median survival time, dose: 12.5 mg/kg/injection, schedule: Q01DX009 (ip), vehicle: saline with Tween-80, higher = longer survival)?
A: Its T/C is 98 % of control.

Q: Which T/C (endpoint: mean tumor weight, dose: 12.5 mg/kg/injection, schedule: Q01DX011 (ip), vehicle: saline, higher = larger tumour) does the source give for `O=C(/C=C/c1ccc(O)c(O)c1)c1ccc(O)c(O)c1O` here?
A: The T/C was 57 % of control.

Q: And the T/C (endpoint: mean tumor weight, dose: 25.0 mg/kg/injection, schedule: Q01DX011 (ip), vehicle: saline, higher = larger tumour)?
A: Its T/C is 89 % of control.

Q: And the T/C (endpoint: mean tumor weight, dose: 50.0 mg/kg/injection, schedule: Q01DX011 (ip), vehicle: saline, higher = larger tumour)?
A: Its T/C is 64 % of control.

Q: And the T/C (endpoint: mean tumor weight, dose: 100.0 mg/kg/injection, schedule: Q01DX011 (ip), vehicle: saline, higher = larger tumour)?
A: The T/C was 59 % of control.

Q: What does the source list for `Cc1ccc(C(=O)/C=C/c2ccccc2O)cc1`?
A: T/C (endpoint: median survival time, dose: 37.5 mg/kg/injection, schedule: Q01DX009 (ip), vehicle: Klucel (hydroxypropylcellulose) (HPC), higher = longer survival): 105 % of control; T/C (endpoint: median survival time, dose: 75.0 mg/kg/injection, schedule: Q01DX009 (ip), vehicle: Klucel (hydroxypropylcellulose) (HPC), higher = longer survival): 111 % of control; T/C (endpoint: median survival time, dose: 150.0 mg/kg/injection, schedule: Q01DX009 (ip), vehicle: Klucel (hydroxypropylcellulose) (HPC), higher = longer survival): 108 % of control; T/C (endpoint: median survival time, dose: 300.0 mg/kg/injection, schedule: Q01DX009 (ip), vehicle: Klucel (hydroxypropylcellulose) (HPC), higher = longer survival): 89 % of control

Q: For `ClCCn1cnc2c(SCc3ccccc3Cl)ncnc21`, which T/C (endpoint: mean tumor weight, dose: 60.0 mg/kg/injection, schedule: Q01DX011 (ip), vehicle: other, higher = larger tumour) is on record?
A: The T/C was 75 % of control.

Q: And the T/C (endpoint: mean tumor weight, dose: 120.0 mg/kg/injection, schedule: Q01DX011 (ip), vehicle: other, higher = larger tumour)?
A: Its T/C is 58 % of control.

Q: What about the T/C (endpoint: mean tumor weight, dose: 240.0 mg/kg/injection, schedule: Q01DX011 (ip), vehicle: other, higher = larger tumour) of the same compound?
A: Its T/C is 64 % of control.

Q: With `O=c1[nH]c2cc(Cl)c(Cl)cc2o1` as the compound, how does the T/C (endpoint: mean tumor weight, dose: 22.0 mg/kg/injection, schedule: Q01DX011 (ip), vehicle: carboxymethylcellulose (CMC), higher = larger tumour) read?
A: Its T/C is 79 % of control.

Q: And the T/C (endpoint: mean tumor weight, dose: 35.0 mg/kg/injection, schedule: Q01DX011 (ip), vehicle: carboxymethylcellulose (CMC), higher = larger tumour)?
A: The T/C was 93 % of control.

Q: And the T/C (endpoint: mean tumor weight, dose: 50.0 mg/kg/injection, schedule: Q01DX011 (ip), vehicle: carboxymethylcellulose (CMC), higher = larger tumour)?
A: The T/C was 95 % of control.

Q: What about the T/C (endpoint: mean tumor weight, dose: 75.0 mg/kg/injection, schedule: Q01DX011 (ip), vehicle: carboxymethylcellulose (CMC), higher = larger tumour) of the same compound?
A: The T/C was 77 % of control and 84 % of control.

Q: What about the T/C (endpoint: mean tumor weight, dose: 115.0 mg/kg/injection, schedule: Q01DX011 (ip), vehicle: carboxymethylcellulose (CMC), higher = larger tumour) of the same compound?
A: The T/C was 114 % of control.

Q: With `CC(C)C[CH2][Pb]([Cl])([CH2]CC(C)C)[CH2]CC(C)C` as the compound, how does the T/C (endpoint: median survival time, dose: 0.25 mg/kg/injection, schedule: Q01DX009 (ip), vehicle: Klucel (hydroxypropylcellulose) (HPC), higher = longer survival) read?
A: The T/C was 112 % of control.

Q: What about the T/C (endpoint: median survival time, dose: 0.5 mg/kg/injection, schedule: Q01DX009 (ip), vehicle: Klucel (hydroxypropylcellulose) (HPC), higher = longer survival) of the same compound?
A: Its T/C is 102 % of control.

Q: And the T/C (endpoint: median survival time, dose: 1.0 mg/kg/injection, schedule: Q01DX009 (ip), vehicle: Klucel (hydroxypropylcellulose) (HPC), higher = longer survival)?
A: The T/C was 93 % of control.

Q: With `CC1=C/C(O)CC(=O)Cc2nc(co2)C(=O)N2CCC=C2C(=O)OC(C(C)C)C(C)/C=C\C(=O)NC/C=C\1` (configuration not stated) as the compound, how does the T/C (endpoint: median survival time, dose: 0.5 micrograms/kg/injection, schedule: Q01DX009 (ip), vehicle: saline, higher = longer survival) read?
A: Its T/C is 103 % of control.

Q: What about the T/C (endpoint: median survival time, dose: 1.0 micrograms/kg/injection, schedule: Q01DX009 (ip), vehicle: saline, higher = longer survival) of the same compound?
A: Its T/C is 94 % of control.

Q: And the T/C (endpoint: median survival time, dose: 2.0 micrograms/kg/injection, schedule: Q01DX009 (ip), vehicle: saline, higher = longer survival)?
A: The T/C was 98 % of control.

Q: What about the T/C (endpoint: median survival time, dose: 4.0 micrograms/kg/injection, schedule: Q01DX009 (ip), vehicle: saline, higher = longer survival) of the same compound?
A: Its T/C is 99 % of control.

Q: How did the T/C (endpoint: median survival time, dose: 0.31 mg/kg/injection, schedule: Q01DX009 (ip), vehicle: Klucel (hydroxypropylcellulose) (HPC), higher = longer survival) turn out when `CCCCCCCC(=O)O[C@H]1[C@H]2[C@@H](CC1(C)C)C(=O)[C@]13O[C@H]1C(=O)[C@]1(CO1)[C@]23C` was run?
A: Its T/C is 89 % of control.

Q: What about the T/C (endpoint: median survival time, dose: 0.63 mg/kg/injection, schedule: Q01DX009 (ip), vehicle: Klucel (hydroxypropylcellulose) (HPC), higher = longer survival) of the same compound?
A: The T/C was 90 % of control.

Q: And the T/C (endpoint: median survival time, dose: 1.25 mg/kg/injection, schedule: Q01DX009 (ip), vehicle: Klucel (hydroxypropylcellulose) (HPC), higher = longer survival)?
A: Its T/C is 89 % of control.

Q: What about the T/C (endpoint: median survival time, dose: 2.5 mg/kg/injection, schedule: Q01DX009 (ip), vehicle: Klucel (hydroxypropylcellulose) (HPC), higher = longer survival) of the same compound?
A: Its T/C is 89 % of control.

Q: How did the T/C (endpoint: median survival time, dose: 0.02 mg/kg/injection, schedule: Q01DX009 (ip), vehicle: Klucel (hydroxypropylcellulose) (HPC), higher = longer survival) turn out when `COC1=C(N)C(=O)c2nc(-c3nc(C(=O)O)c(C)cc3N)ccc2C1=O` was run?
A: Its T/C is 91 % of control.

Q: What about the T/C (endpoint: median survival time, dose: 0.05 mg/kg/injection, schedule: Q01DX009 (ip), vehicle: Klucel (hydroxypropylcellulose) (HPC), higher = longer survival) of the same compound?
A: Its T/C is 106 % of control.

Q: And the T/C (endpoint: median survival time, dose: 0.1 mg/kg/injection, schedule: Q01DX009 (ip), vehicle: Klucel (hydroxypropylcellulose) (HPC), higher = longer survival)?
A: Its T/C is 103 % of control.

Q: For `C[C@]12CC[C@H](OC3OC(CO)C(O)C(O)C3O)C[C@H]1CC[C@@H]1[C@@H]2CC[C@]2(C)[C@@H](C3=CCOC3=O)CC[C@]12O` (some centres not stated), which T/C (endpoint: mean tumor weight, dose: 0.25 mg/kg/injection, schedule: Q01DX011 (ip), vehicle: carboxymethylcellulose (CMC), higher = larger tumour) is on record?
A: The T/C was 33 % of control.

Q: And the T/C (endpoint: mean tumor weight, dose: 0.25 mg/kg/injection, schedule: Q01DX011 (ip), vehicle: saline, higher = larger tumour)?
A: Its T/C is 41 % of control.

Q: And the T/C (endpoint: mean tumor weight, dose: 0.5 mg/kg/injection, schedule: Q01DX011 (ip), vehicle: carboxymethylcellulose (CMC), higher = larger tumour)?
A: The T/C was 47 % of control.

Q: What about the T/C (endpoint: mean tumor weight, dose: 0.5 mg/kg/injection, schedule: Q01DX011 (ip), vehicle: saline, higher = larger tumour) of the same compound?
A: The T/C was 16 % of control.

Q: And the T/C (endpoint: mean tumor weight, dose: 1.0 mg/kg/injection, schedule: Q01DX011 (ip), vehicle: carboxymethylcellulose (CMC), higher = larger tumour)?
A: The T/C was 14 % of control.
